The test has as its target human APJ receptor (Homo sapiens (Human), UniProt P35414). Kind of test: [35S]GTPγS binding assay on membranes from CHO cells stably expressing human APJ receptor. The note with it: membranes of CHO cells stably expressing human APJ receptor, read-out: Activity hAPJ SPA EC50 IP. The test is classed as biochemical. A digest of the protocol:
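Agonist EC50 values come from non-linear regression of mean data from several independent runs. Membranes of CHO cells stably expressing human APJ were incubated 90 min at room temperature with [35S]GTPγS in buffer with optimized GDP, MgCl2 and NaCl, then read on a microplate imager.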
Background: GTPγS is a poorly hydrolysed GTP analogue; its binding reports G protein activation.
Chain of human APJ receptor (P35414 whole entry): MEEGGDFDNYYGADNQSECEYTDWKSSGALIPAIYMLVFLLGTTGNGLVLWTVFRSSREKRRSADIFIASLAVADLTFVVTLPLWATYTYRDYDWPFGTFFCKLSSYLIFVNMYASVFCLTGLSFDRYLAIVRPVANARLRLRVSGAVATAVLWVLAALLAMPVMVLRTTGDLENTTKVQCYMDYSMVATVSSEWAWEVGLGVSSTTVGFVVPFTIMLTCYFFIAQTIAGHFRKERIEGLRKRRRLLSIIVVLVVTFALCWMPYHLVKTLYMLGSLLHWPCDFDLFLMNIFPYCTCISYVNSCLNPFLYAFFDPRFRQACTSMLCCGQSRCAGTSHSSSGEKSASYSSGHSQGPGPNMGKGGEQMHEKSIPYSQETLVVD
In general, EC50 refers to the concentration needed to bring the measured effect to its halfway point. With `COc1cccc(-c2nnc(NS(=O)(=O)[C@@H](C)[C@@H](OC(C)C)c3ncc(C)cn3)n2[C@@H](C)c2ccon2)n1` (single isomer, unassigned) [Example 270.0, (1S,2S)-1-isopropoxy-N-(4-((R)-1-(isoxazol-3-yl)ethyl)-5-(6-methoxypyridin-2-yl)-4H-1,2,4-triazol-3-yl)-1-(5-methylpyrimidin-2-yl)propane-2-sulfonamide or (1S,2S)-1-isopropoxy-N-(4-((S)-1-(isoxazol-3-yl)ethyl)-5-(6-methoxypyridin-2-yl)-4H-1,2,4-triazol-3-yl)-1-(5-methylpyrimidin-2-yl)propane-2-sulfonamide], the EC50 was 5.1 nM.

As to `COc1cccc(-c2nnc(NS(=O)(=O)[C@@H](C)[C@@H](OC(C)C)c3ncc(C)cn3)n2[C@@H](C)[C@H]2CCCO2)n1` (single isomer, unassigned) [Example 273.0], the EC50 was 23 nM.

Turning to `COc1cccc(-c2nnc(NS(=O)(=O)[C@@H](C)[C@@H](OC(C)C)c3ncc(C)cn3)n2[C@@H](C)[C@H]2CCCO2)n1` (single isomer, unassigned) [Example 274.0], the EC50 turned out to be 2.2 nM.

Regarding `COc1cccc(-c2nnc(NS(=O)(=O)[C@@H](C)[C@@H](OC(C)C)c3ncc(C)cn3)n2[C@@H](C)[C@H]2CCCO2)n1` (single isomer, unassigned) [Example 275.0], the EC50 came out at 18 nM.

Consider `COc1cccc(-c2nnc(NS(=O)(=O)[C@@H](C)[C@@H](OC(C)C)c3ncc(C)cn3)n2[C@@H](C)[C@H]2CCCO2)n1` (single isomer, unassigned) [Example 276.0], for which the EC50 was found to be 1.3 nM.

For the compound `COc1cccc(-c2nnc(NS(=O)(=O)[C@@H](C)[C@H](OC)c3ncc(Cl)cn3)n2C[C@H]2CCCO2)n1` (single isomer, unassigned) [Example 279.0, (1R,2S)-1-(5-chloropyrimidin-2-yl)-1-methoxy-N-(5-(6-methoxypyridin-2-yl)-4-(((R)-tetrahydrofuran-2-yl)methyl)-4H-1,2,4-triazol-3-yl)propane-2-sulfonamide or (1R,2S)-1-(5-chloropyrimidin-2-yl)-1-methoxy-N-(5-(6-methoxypyridin-2-yl)-4-(((S)-tetrahydrofuran-2-yl)methyl)-4H-1,2,4-triazol-3-yl)propane-2-sulfonamide], the 50% effective concentration (EC50) was determined as 75 nM.

For `COc1cccc(-c2nnc(NS(=O)(=O)[C@@H](C)[C@H](OC)c3ncc(Cl)cn3)n2C[C@H]2CCCO2)n1` (single isomer, unassigned) [Example 280.0, (1R,2S)-1-(5-chloropyrimidin-2-yl)-1-methoxy-N-(5-(6-methoxypyridin-2-yl)-4-(((R)-tetrahydrofuran-2-yl)methyl)-4H-1,2,4-triazol-3-yl)propane-2-sulfonamide or (1R,2S)-1-(5-chloropyrimidin-2-yl)-1-methoxy-N-(5-(6-methoxypyridin-2-yl)-4-(((S)-tetrahydrofuran-2-yl)methyl)-4H-1,2,4-triazol-3-yl)propane-2-sulfonamide], the EC50 is 21 nM.

With `COc1cccc(-c2nnc(NS(=O)(=O)[C@@H](C)[C@H](OC)c3ncc(Cl)cn3)n2CC2CCOC2)n1` (single isomer, unassigned) [Example 285.0, (1R,2S)-1-(5-chloropyrimidin-2-yl)-1-methoxy-N-(5-(6-methoxypyridin-2-yl)-4-(((R)-tetrahydrofuran-3-yl)methyl)-4H-1,2,4-triazol-3-yl)propane-2-sulfonamide or (1R,2S)-1-(5-chloropyrimidin-2-yl)-1-methoxy-N-(5-(6-methoxypyridin-2-yl)-4-(((S)-tetrahydrofuran-3-yl)methyl)-4H-1,2,4-triazol-3-yl)propane-2-sulfonamide], the EC50 was determined as 65 nM.

Consider `COc1cccc(-c2nnc(NS(=O)(=O)[C@@H](C)[C@H](OC)c3ncc(Cl)cn3)n2CC2CCOC2)n1` (single isomer, unassigned) [Example 286.0, (1R,2S)-1-(5-chloropyrimidin-2-yl)-1-methoxy-N-(5-(6-methoxypyridin-2-yl)-4-(((R)-tetrahydrofuran-3-yl)methyl)-4H-1,2,4-triazol-3-yl)propane-2-sulfonamide or (1R,2S)-1-(5-chloropyrimidin-2-yl)-1-methoxy-N-(5-(6-methoxypyridin-2-yl)-4-(((S)-tetrahydrofuran-3-yl)methyl)-4H-1,2,4-triazol-3-yl)propane-2-sulfonamide], for which the EC50 is 55 nM.

`COc1cccc(-c2nnc(NS(=O)(=O)[C@@H](C)[C@H](OC)c3ncc(Cl)cn3)n2C[C@H]2CCC(C)(C)O2)n1` (single isomer, unassigned) [Example 289.0, (1R,2S)-1-(5-chloropyrimidin-2-yl)-N-(4-(((R)-5,5-dimethyltetrahydrofuran-2-yl)methyl)-5-(6-methoxyl)yridin-2-yl)-4H-1,2,4-triazol-3-yl)-1-methoxypropane-2-sulfonamide or (1R,2S)-1-(5-chloropyrimidin-2-yl)-N-(4-(((S)-5,5-dimethyltetrahydrofuran-2-yl)methyl)-5-(6-methoxypyridin-2-yl)-4H-1,2,4-triazol-3-yl)-1-methoxypropane-2-sulfonamide]: the EC50 was 82 nM.

As to `COc1cccc(-c2nnc(NS(=O)(=O)[C@@H](C)[C@H](OC)c3ncc(Cl)cn3)n2C[C@H]2CCC(C)(C)O2)n1` (single isomer, unassigned) [Example 290.0, (1R,2S)-1-(5-chloropyrimidin-2-yl)-N-(4-(((R)-5,5-dimethyltetrahydrofuran-2-yl)methyl)-5-(6-methoxypyridin-2-yl)-4H-1,2,4-triazol-3-yl)-1-methoxypropane-2-sulfonamide or (1R,2S)-1-(5-chloropyrimidin-2-yl)-N-(4-(((S)-5,5-dimethyltetrahydrofuran-2-yl)methyl)-5-(6-methoxypyridin-2-yl)-4H-1,2,4-triazol-3-yl)-1-methoxypropane-2-sulfonamide], the EC50 was determined as 15 nM.

Consider `COc1cccc(-c2nnc(NS(=O)(=O)[C@@H](C)[C@H](C)c3ncc(Cl)cn3)n2[C@H](C)c2csnn2)n1` (single isomer, unassigned) [Example 295.0, (2S,3R)-N-(4-((R)-1-(1,2,3-thiadiazol-4-yl)ethyl)-5-(6-methoxypyridin-2-yl)-4H-1,2,4-triazol-3-yl)-3-(5-chloropyrimidin-2-yl)butane-2-sulfonamide or (2S,3R)-N-(4-((S)-1-(1,2,3-thiadiazol-4-yl)ethyl)-5-(6-methoxypyridin-2-yl)-4H-1,2,4-triazol-3-yl)-3-(5-chloropyrimidin-2-yl)butane-2-sulfonamide], for which the EC50 is 6.4 nM.

As to `COc1cccc(-c2nnc(NS(=O)(=O)[C@@H](C)[C@H](C)c3ncc(Cl)cn3)n2[C@H](C)c2csnn2)n1` (single isomer, unassigned) [Example 296.0, (2S,3R)-N-(4-((R)-1-(1,2,3-thiadiazol-4-yl)ethyl)-5-(6-methoxypyridin-2-yl)-4H-1,2,4-triazol-3-yl)-3-(5-chloropyrimidin-2-yl)butane-2-sulfonamide or (2S,3R)-N-(4-((S)-1-(1,2,3-thiadiazol-4-yl)ethyl)-5-(6-methoxypyridin-2-yl)-4H-1,2,4-triazol-3-yl)-3-(5-chloropyrimidin-2-yl)butane-2-sulfonamide], the concentration for a half-maximal effect (EC50) amounted to 1.8 nM.

For the compound `COc1cccc(-c2nnc(NS(=O)(=O)[C@@H](C)[C@@H](OC(C)C)c3ncc(C)cn3)n2C[C@H]2CCCCO2)n1` (single isomer, unassigned) [Example 300.0, (1S,2S)-1-isopropoxy-N-(5-(6-methoxypyridin-2-yl)-4-(((R)-tetrahydro-2H-pyran-2-yl)methyl)-4H-1,2,4-triazol-3-yl)-1-(5-methylpyrimidin-2-yl)propane-2-sulfonamide or (1S,2S)-1-isopropoxy-N-(5-(6-methoxypyridin-2-yl)-4-(((S)-tetrahydro-2H-pyran-2-yl)methyl)-4H-1,2,4-triazol-3-yl)-1-(5-methylpyrimidin-2-yl)propane-2-sulfonamide], the EC50 was 14 nM.

Take `COc1cccc(-c2nnc(NS(=O)(=O)[C@@H](C)[C@@H](OC(C)C)c3ncc(C)cn3)n2C[C@H]2CCCCO2)n1` (single isomer, unassigned) [Example 301.0, (1S,2S)-1-isopropoxy-N-(5-(6-methoxypyridin-2-yl)-4-(((R)-tetrahydro-2H-pyran-2-yl)methyl)-4H-1,2,4-triazol-3-yl)-1-(5-methylpyrimidin-2-yl)propane-2-sulfonamide or (1S,2S)-1-isopropoxy-N-(5-(6-methoxypyridin-2-yl)-4-(((S)-tetrahydro-2H-pyran-2-yl)methyl)-4H-1,2,4-triazol-3-yl)-1-(5-methylpyrimidin-2-yl)propane-2-sulfonamide]: the 50% effective concentration (EC50) amounted to 4.4 nM.

Regarding `COc1cccc(-c2nnc(NS(=O)(=O)[C@@H](C)[C@H](OC)c3ncc(Cl)cn3)n2C[C@@H]2CCC[C@H](C)O2)n1` (single isomer, unassigned) [Example 305.0], the EC50 worked out at 4 nM.

As for `COc1cccc(-c2nnc(NS(=O)(=O)[C@@H](C)[C@H](OC)c3ncc(Cl)cn3)n2C[C@@H]2CCC[C@H](C)O2)n1` (single isomer, unassigned) [Example 306.0], the EC50 was 35 nM.

In the case of `COc1cccc(-c2nnc(NS(=O)(=O)[C@@H](C)[C@H](OC)c3ncc(Cl)cn3)n2C[C@@H]2CCC[C@H](C)O2)n1` (single isomer, unassigned) [Example 307.0], the EC50 turned out to be 8.8 nM.

On to `COc1cccc(-c2nnc(NS(=O)(=O)[C@@H](C)[C@H](OC)c3ncc(Cl)cn3)n2C[C@@H]2CCC[C@H](C)O2)n1` (single isomer, unassigned) [Example 308.0], for which the EC50 turned out to be 1.9 nM.

As for `COc1cccc(-c2nnc(NS(=O)(=O)[C@@H](C)[C@H](OC)c3ncc(Cl)cn3)n2[C@H](C)[C@@H]2CCCCO2)n1` (single isomer, unassigned) [Example 317.0], the EC50 is 0.71 nM.

As for `COc1cccc(-c2nnc(NS(=O)(=O)[C@@H](C)[C@H](OC)c3ncc(Cl)cn3)n2[C@H](C)[C@@H]2CCCCO2)n1` (single isomer, unassigned) [Example 318.0], the EC50 was 2.4 nM.

The record behind these values is US10689367B2, “Triazole pyridyl compounds as agonists of the APJ receptor” (AMGEN INC., priority 2016, dated 2020).
